Results: patent publication US10201610B2, “Interference peptides and use thereof” (The University of Western Australia, priority 2014, dated 2019)
Like-named read-outs stand apart in the source and are kept apart here. Ends that are not written are not given here.

Tests used:
[1] = test system: SUM149PT cells; assay: cells; type: cell-based, human; conditions: for activity / IC50 as compared with the wt iPep624: Cell Titer Glo
From the text: The EN1-iPeps and iPep controls were first tested in SUM149PT cells carrying high EN1 expression. Cells were first treated with a full-length 29-mer peptide (iPep624) comprising the N-terminal, less conserved amino acid sequences, the hexamotif, and the C-terminal tail. As a control, the inventors generated the iPep624ΔHEX in which the hexamotif was mutated from the wild type (wt) WPAWVY (SEQ ID NO: 13) to the GAAGAG (SEQ ID NO: 15) sequence. These mutations were expected to dramatically abolish the activity of the peptide. Both peptides were included in the culture medium of the basal cancer cells in increasing (0-100 μM) concentrations and incubated for 8 hours at 37° C. Treated cells were first analyzed using the Cell Titer Glo assay, which monitors metabolic viability. […] This calculated value of IC50 is in the range of concentrations observed with other peptides delivered with CPPs.
(§1) All peptides were synthetized at the UNC High-Throughput Peptide Synthesis and Array Facility at UNC. Taxol, Rotenone and Halofuginone (Sigma-Aldrich, St Louis, Mo.) were dissolved in DMSO. A total of […] or 1×10^3 breast cells for peptide and drug treatment respectively, were seeded in 96-well plates. Cells were exposed for 8 hours to the peptide and 48 to 72 hours for drug treatment. The cell viability after peptide/drug treatment was assayed with the Cell Titer Glo (CTG) assay (Promega, Madison, Wis., USA).

[2] = test system: SUM149PT control (EGFP) transduced cells (SUM149PT-Control); assay: Cell Titer Glo cell viability assay in control transduced SUM149PT cells; type: cell-based; conditions: Homo sapiens
Protocol: (§2) In the neural system it has been proposed that EN1 protects neurons from mitochondrial complex I insults. Likewise, the inventors investigated whether EN1 could play a similar role in the basal-like breast cancer cell lines. The EN1 cDNA was overexpressed in SUM149PT cells using a lentiviral vector, and the transduced cells were treated with increasing concentrations of rotenone, a mitochondrial complex I toxin, and taxol, a […].
(§3) Plasmids expressing the EN1 cDNA (Genecopoeia, vector EX-T1021-Lv07) or EN1 shRNAs (Open Biosystems, pLKO-EN1) were transfected with Gagpol-, VSVG-, and RSV-REV-coding plasmids in HEK 293T cells using Lipofectamine and Plus Reagent cationic lipids (Invitrogen, Carlsbad, Calif.) and transduction of breast cells was performed as described in Beltran, A. S. et al. Breast Cancer Res 13, R94 (2011).
as §1

[3] = test system: SUM149PT cells overexpressing the EN1 cDNA (SUM149PT-EN1); assay: Cell Titer Glo cell viability assay in SUM149PT cells overexpressing the EN1 cDNA; type: cell-based, human; conditions: Homo sapiens
Protocol: as §2, §3, §1

[4] = test system: panel of breast cancer cell lines; assay: Cell Titer Glo cell viability assay, whole panel of breast cancer cell lines; type: cell-based; conditions: maximum tested concentrations (100 μM), 8 hours
Protocol: To test the specificity of the EN1-iPep in cell lines expressing EN1, the inventors delivered the iPeps into a panel of breast cancer cell lines expressing different amounts of EN1.
as §1

[5] = Homo sapiens, SUM149PT, 48 hours drug and 8 hours 500 nM iPep682, read-out: IC50 of drug with iPep682
[6] = Homo sapiens, SUM149PT, 48 hours of treatment, read-out: IC50 of drug alone
[7] = SUM149PT, drug treatment 72 hours, read-out: IC50 (cell viability), control transduced cells
[8] = SUM149PT, drug treatment 72 hours, read-out: IC50 (cell viability), EN1 cDNA transduced cells

`O=c1[nH]cc(F)c(=O)[nH]1` [5-FU, 5-Fluorouracil, reference compound] was tested, and the IC50 [1, 5] was 29.5 µM and the IC50 [1, 6] was 610 µM.

`O=C(CC1NCCCC1O)Cn1cnc2cc(Br)c(Cl)cc2c1=O` (centres unmarked) [halofuginone] was tested, and the “breast cancer cell death” value ([1]; SUM149PT, single agent) was “induced very potent breast cancer cell death”, the IC50 ([2]; SUM149PT-Control cells, 500 nM iPep, 48 hours, read-out: IC50 of halofuginone in combination with iPep624) was 0.041 nM and the IC50 ([3]; SUM149PT-EN1 cells, 500 nM iPep, 48 hours, read-out: IC50 of halofuginone in combination with iPep624) was 0.00049 µM.

For `C=C(C)[C@H]1Cc2c(ccc3c2O[C@@H]2COc4cc(OC)c(OC)cc4[C@@H]2C3=O)O1` [rotenone], the IC50 [2, 7] was 1080 nM and the IC50 [3, 8] was 19.6 µM.

Molecule `CC(=O)O[C@H]1C(=O)[C@@]2(C)[C@H]([C@H](OC(=O)c3ccccc3)[C@]3(O)C[C@H](OC(=O)[C@H](O)[C@@H](NC(=O)c4ccccc4)c4ccccc4)C(C)=C1C3(C)C)[C@]1(OC(C)=O)CO[C@@H]1C[C@@H]2O` [taxol, reference compound] has an IC50 [1, 5] of 0.049 µM, an IC50 [1, 6] of 7.6 µM and an IC50 [2, 7] of 7240 nM. For the same molecule, the IC50 [3, 8] was 47.8 µM.

With KKKRKVPLVWPAWVYCTRYSDRPS [iPep682] the IC50 ([1]; 8 h) was 12.5 µM.

For “KKKRKVTDSQQPLVAPAWVYCTRYSDRPS (SEQ ID NO: 20) (engineered from homo sapiens) [iPep624W1ΔA, first tryptophan mutated to alanine]”, the “activity / IC50 as compared with the wt iPep624” value ([1]; SUM149PT) was “retained activity but significantly increased the IC50”.

“KKKRKVTDSQQPLVGAAGAGCTRYSDRPS (SEQ ID NO: 18) (engineered from homo sapiens) [iPep624ΔHEX]” was tested, and the cell viability ([1]; SUM149PT, 0-100 μM peptide, 8 hours) was “did not show significant changes in cell viability” and the “cell viability of any of the breast cancer cell lines” value [4] was “did not significantly affect cell viability”.

In the case of “KKKRKVTDSQQPLVWPAAVYCTRYSDRPS (SEQ ID NO: 19) (engineered from homo sapiens) [iPep624W2ΔA, second tryptophan mutated to alanine]”, the “activity / IC50 as compared with the wt iPep624” value ([1]; SUM149PT) is reported as “retained activity but significantly increased the IC50”.

With “KKKRKVWPAWVYCTRYSDR (SEQ ID NO: 22) (homo sapiens) [iPep697, peptide lacking all the N-terminal residues upstream of the hexamotif]” the “activity / IC50 as compared with the wt iPep624” value ([1]; SUM149PT) was “less active”.
